Legend:
Assay type in all cases: cell-based
BRG1 = target: T1, BRG1 (Homo sapiens, UniProt P51532); assay: Western blot degradation of BRG1 (SMARCA4); conditions: Molt-4 Cell; 24 hours
T1 construct: expression of target proteins in cells; endogenous in cells
Experimental: (§1) Conventional Western blot assay was performed to evaluate the effects of the compounds of the present disclosure on the expression of target proteins in cells.
(§2) (1) Cell Seeding and Protein Harvesting: The selected cells were processed according to the cell seeding procedure and protein harvesting procedure in Table II-2.
(§3) (2) To the collected supernatant, 5×SDS sample loading buffer was added, followed by denaturation at 95 °C for 5 minutes. The denatured samples were then separated by SDS-PAGE electrophoresis on a polyacrylamide gel. Proteins were transferred to a nitrocellulose membrane (0.45 μm NC membrane), blocked with blocking buffer at room temperature for 1 hour, and subjected to antibody incubation and development procedures according to the antibody manufacturer's instructions (Cell Signaling Technology).
(§4) Half-Maximal Degradation Concentration value (the drug concentration required for degrading proteins by 50%, abbreviated as DC50) reads method: comparing the grayscale values of Western blot bands from drug-treated samples with those from blank DMSO-treated controls, and identifying the drug concentration range at which the grayscale value is half that of the DMSO-treated control bands.
(§5) DC50 values can be calculated using ImageJ software to measure grayscale values of Western blot bands from drug-treated samples. The concentration-response curve is fitted to estimate the drug concentration corresponding to half the grayscale value.
(§6) Target protein remaining (%) refers to the percentage of target protein remaining in cells after treatment with protein degrader compounds.
(§7) Calculation method for target protein remaining (%): Use ImageJ software to measure grayscale values of Western blot bands from drug (protein degrader)-treated samples. The grayscale value of drug-treated bands is divided by that of internal control protein bands, and the resulting quotient is normalized to obtain the relative percentage of remaining target protein after protein degrader treatment.
(§8) Target protein degradation rate (%)=1−target protein remaining (%).

BRM = target: T2, BRM (Homo sapiens, UniProt P51531); assay: Western blot degradation of BRM (SMARCA2); conditions: Molt-4 Cell; 24 hours
T2 construct: expression of target proteins in cells; endogenous in cells
Experimental: as §1, §2, §3, §4, §5, §6, §7, §8

C-ABL = target: T3, C-ABL (Homo sapiens, UniProt P00519); assay: Western blot degradation of C-ABL; conditions: K562 Cell; 24 hours
T3 construct: K562 also holds p210 BCR-ABL (BCR P11274 fused to ABL1)
Experimental: as §1, §2, §3, §4, §5, §6, §7, §8

[1] = system: Human myeloid monocytic leukemia cell line (MV-4-11); assay: Inhibition of MV-4-11 cell proliferation (CellTiter luminescent viability); conditions: Homo sapiens, MV4-11, Table IL2, BCR-ABL inhibitor-based, 96 hours; for inhibition at 0.01 µM: MV-4-11, 10 nM, read-out: Inhibition Rate at 10 nM (%); for inhibition at 0.5 µM: MV-4-11, 500 nM, read-out: Inhibition Rate at 500 nM (%)
Outline: (§9)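 IC50 is fitted from luminescent viability (CellTiter-Meiluncell) curves. Nine-point, 5-fold dilution series (top stock 2000 μM) are added at 0.5 μL per 100 μL medium to cells plated the day before, with growth at 37 °C and 5% CO2.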

[2] = system: Human acute lymphocytic leukemia T lymphocytes cell line (CCRF-CEM); assay: Inhibition of CCRF-CEM cell proliferation (CellTiter luminescent viability); conditions: Homo sapiens, 96 h, Table IL3, BCR-ABL inhibitor-based; for inhibition at 0.01 µM: 10 nM, read-out: Inhibition Rate at 10 nM (%); for inhibition at 0.5 µM: 500 nM, read-out: Inhibition Rate at 500 nM (%)
[3] = system: Human Multiple myeloma cell line (MM.1S); assay: Inhibition of MM.1S cell proliferation (CellTiter luminescent viability); conditions: Homo sapiens, MM1.S, Table IL1, BCR-ABL inhibitor-based, 96 hours; for inhibition at 0.01 µM: 10 nM, read-out: Inhibition Rate at 10 nM (%); for inhibition at 0.5 µM: 500 nM, read-out: Inhibition Rate at 500 nM (%)
Outline: as §9

T3 sequence (P00519 whole entry, the tested form may be a part): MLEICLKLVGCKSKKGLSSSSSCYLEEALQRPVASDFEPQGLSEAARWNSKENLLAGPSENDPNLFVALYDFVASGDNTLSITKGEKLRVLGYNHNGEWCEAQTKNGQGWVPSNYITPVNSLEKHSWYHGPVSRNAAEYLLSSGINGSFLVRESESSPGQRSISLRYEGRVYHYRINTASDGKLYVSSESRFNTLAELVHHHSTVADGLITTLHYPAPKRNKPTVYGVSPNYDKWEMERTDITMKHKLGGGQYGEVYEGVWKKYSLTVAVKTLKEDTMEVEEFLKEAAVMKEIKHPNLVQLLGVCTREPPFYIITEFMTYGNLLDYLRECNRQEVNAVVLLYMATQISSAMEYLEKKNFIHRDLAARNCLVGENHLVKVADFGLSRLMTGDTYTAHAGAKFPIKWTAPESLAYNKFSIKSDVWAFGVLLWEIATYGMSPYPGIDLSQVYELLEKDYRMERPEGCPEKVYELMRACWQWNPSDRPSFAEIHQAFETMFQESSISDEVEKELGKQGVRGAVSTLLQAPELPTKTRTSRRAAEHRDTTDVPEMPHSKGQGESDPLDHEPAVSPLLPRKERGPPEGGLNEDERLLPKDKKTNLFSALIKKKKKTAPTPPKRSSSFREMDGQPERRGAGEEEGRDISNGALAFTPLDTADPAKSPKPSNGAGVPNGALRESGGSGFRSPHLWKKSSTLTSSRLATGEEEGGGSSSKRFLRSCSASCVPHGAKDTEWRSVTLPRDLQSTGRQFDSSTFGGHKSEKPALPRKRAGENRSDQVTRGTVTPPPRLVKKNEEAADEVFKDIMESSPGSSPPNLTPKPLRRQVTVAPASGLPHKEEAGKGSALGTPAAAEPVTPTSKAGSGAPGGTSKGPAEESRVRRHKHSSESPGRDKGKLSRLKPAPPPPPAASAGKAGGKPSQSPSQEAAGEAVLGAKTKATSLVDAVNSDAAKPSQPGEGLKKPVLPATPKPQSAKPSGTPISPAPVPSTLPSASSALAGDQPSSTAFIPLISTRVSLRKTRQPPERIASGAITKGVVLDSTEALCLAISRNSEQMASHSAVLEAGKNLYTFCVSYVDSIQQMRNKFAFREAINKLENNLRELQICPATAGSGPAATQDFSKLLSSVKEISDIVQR
T3 sequence (Q96SW2 whole entry partner, the tested form may be a part): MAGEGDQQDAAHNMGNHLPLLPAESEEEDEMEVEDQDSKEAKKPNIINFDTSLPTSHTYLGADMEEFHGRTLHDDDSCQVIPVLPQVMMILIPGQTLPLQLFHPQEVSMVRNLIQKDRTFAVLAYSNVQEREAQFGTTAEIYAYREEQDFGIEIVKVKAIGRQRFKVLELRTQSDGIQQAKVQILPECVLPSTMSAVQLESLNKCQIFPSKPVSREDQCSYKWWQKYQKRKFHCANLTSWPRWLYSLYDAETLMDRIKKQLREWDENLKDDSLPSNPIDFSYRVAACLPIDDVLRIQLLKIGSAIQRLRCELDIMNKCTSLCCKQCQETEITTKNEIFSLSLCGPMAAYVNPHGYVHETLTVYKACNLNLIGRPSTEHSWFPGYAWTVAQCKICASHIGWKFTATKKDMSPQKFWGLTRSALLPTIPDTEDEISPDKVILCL
T1 sequence (P51532 whole entry): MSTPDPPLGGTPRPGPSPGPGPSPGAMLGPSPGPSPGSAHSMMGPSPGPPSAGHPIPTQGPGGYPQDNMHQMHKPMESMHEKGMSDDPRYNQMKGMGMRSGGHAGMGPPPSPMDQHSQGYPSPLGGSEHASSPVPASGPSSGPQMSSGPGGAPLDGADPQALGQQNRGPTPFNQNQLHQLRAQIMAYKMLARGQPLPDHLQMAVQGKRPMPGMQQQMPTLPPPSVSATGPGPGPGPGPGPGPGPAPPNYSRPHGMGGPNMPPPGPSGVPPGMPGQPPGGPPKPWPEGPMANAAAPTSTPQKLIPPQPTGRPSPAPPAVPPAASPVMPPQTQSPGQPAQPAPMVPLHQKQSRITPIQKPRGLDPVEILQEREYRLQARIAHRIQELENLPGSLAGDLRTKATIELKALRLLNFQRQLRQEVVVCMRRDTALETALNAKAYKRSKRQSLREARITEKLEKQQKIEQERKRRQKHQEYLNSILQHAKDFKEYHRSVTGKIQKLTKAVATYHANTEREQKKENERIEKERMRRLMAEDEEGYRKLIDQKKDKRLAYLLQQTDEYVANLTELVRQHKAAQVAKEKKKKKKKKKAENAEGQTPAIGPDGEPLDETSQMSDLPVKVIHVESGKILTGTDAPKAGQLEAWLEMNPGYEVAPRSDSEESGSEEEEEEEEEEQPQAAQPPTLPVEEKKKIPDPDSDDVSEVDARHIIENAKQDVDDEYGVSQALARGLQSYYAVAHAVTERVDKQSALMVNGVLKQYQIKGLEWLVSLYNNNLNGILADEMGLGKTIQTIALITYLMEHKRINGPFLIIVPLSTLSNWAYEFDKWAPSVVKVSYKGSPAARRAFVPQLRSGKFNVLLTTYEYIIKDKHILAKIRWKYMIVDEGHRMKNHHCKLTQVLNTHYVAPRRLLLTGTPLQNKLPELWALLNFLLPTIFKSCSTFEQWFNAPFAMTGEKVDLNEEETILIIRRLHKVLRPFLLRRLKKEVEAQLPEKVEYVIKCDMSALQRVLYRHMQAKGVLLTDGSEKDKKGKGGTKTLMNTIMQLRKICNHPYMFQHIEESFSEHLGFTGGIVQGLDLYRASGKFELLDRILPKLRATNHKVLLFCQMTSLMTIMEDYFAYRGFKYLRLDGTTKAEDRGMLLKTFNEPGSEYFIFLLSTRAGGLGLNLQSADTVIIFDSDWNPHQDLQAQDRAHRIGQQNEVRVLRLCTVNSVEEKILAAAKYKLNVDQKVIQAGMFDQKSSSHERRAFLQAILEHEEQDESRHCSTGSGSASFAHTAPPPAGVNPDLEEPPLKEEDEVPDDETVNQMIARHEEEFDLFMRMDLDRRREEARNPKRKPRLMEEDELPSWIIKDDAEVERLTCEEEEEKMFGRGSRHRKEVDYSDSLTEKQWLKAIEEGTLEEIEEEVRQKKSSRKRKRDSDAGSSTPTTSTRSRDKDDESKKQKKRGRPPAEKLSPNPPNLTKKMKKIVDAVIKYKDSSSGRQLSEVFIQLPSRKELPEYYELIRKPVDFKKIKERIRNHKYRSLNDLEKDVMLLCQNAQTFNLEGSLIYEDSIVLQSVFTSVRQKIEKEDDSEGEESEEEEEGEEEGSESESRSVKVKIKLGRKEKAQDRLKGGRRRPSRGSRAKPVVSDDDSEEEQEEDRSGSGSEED
T2 sequence (P51531 whole entry): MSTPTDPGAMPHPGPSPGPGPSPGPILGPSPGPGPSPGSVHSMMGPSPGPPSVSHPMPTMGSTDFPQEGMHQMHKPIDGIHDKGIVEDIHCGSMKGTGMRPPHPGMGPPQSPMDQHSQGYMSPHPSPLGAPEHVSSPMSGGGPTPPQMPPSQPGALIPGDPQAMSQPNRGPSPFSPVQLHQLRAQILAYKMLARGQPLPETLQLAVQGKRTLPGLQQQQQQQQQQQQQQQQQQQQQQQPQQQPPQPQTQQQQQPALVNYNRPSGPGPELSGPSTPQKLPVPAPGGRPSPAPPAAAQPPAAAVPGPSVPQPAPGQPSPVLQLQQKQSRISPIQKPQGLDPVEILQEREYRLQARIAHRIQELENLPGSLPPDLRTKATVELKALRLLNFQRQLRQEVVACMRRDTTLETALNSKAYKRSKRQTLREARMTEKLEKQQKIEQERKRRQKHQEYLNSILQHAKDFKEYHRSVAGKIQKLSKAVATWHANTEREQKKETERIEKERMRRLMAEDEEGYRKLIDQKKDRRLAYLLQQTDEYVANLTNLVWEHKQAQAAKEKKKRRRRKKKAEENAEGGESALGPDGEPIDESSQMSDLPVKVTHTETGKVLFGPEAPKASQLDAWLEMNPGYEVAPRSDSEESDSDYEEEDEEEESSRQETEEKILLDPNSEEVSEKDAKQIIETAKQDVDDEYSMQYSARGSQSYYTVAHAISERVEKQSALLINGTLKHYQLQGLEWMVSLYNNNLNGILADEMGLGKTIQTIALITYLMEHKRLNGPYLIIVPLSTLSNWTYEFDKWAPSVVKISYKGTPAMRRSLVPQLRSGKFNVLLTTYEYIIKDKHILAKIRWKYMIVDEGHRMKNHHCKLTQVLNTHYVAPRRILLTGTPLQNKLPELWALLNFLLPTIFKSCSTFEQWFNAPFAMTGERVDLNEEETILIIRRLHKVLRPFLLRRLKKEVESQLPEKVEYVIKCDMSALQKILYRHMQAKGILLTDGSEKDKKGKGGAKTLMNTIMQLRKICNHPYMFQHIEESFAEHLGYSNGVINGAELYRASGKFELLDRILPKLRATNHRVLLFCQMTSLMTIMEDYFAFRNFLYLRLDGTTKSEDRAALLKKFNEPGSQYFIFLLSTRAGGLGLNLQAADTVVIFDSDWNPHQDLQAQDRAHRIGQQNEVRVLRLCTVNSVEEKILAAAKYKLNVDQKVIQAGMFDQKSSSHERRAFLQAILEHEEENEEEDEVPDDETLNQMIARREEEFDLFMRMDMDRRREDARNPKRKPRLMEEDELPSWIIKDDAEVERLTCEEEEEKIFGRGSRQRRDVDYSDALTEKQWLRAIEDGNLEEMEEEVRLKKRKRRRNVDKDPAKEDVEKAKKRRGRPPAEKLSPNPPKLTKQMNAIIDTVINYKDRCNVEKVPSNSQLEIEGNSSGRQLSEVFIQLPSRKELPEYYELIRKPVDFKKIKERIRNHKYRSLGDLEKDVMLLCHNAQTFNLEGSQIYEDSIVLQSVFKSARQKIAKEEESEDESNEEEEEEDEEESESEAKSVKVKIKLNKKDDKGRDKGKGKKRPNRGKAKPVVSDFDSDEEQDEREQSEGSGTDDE

| Structure (SMILES) | Degradation of substrate protein C-ABL; BCR-ABL (substrate protein remaining %) (C-ABL) | inhibition at 0.01 µM [2] [%] | inhibition at 0.5 µM [2] [%] | other results |
| --- | --- | --- | --- | --- |
| Nc1nnc(-c2cc(F)ccc2O)cc1N1CCN(Cc2ccc3c(c2)C(=O)N(N2CCC(=O)NC2=O)C3=O)CC1 [GT-05072, 5-((4-(3-amino-6-(5-fluoro-2-hydroxyphenyl)pyridazin-4-yl)piperazin-1-yl)methyl)-2-(2,4-dioxotetrahydropyrimidin-1(2H)-yl)isoindoline-1,3-dione] | – | – | – | Degradation of substrate protein BRG1 (substrate protein remaining %) (BRG1): B (80%<substrate protein remaining %≤100%); Degradation of substrate protein BRM (substrate protein remaining %) (BRM): A (0%≤substrate protein remaining %≤80%) |
| Nc1nnc(-c2cc(F)ccc2O)cc1N1CCN(CC2CCN(C3CCN(c4ccc5c(c4)C(=O)N(N4CCC(=O)NC4=O)C5=O)CC3)CC2)CC1 [GT-05094, 5-(4-((4-(3-amino-6-(5-fluoro-2-hydroxyphenyl)pyridazin-4-yl)piperazin-1-yl)methyl)-[1,4′-bipiperidin]-1′-yl)-2-(2,4-dioxotetrahydropyrimidin-1(2H)-yl)isoindoline-1,3-dione] | – | – | – | Degradation of substrate protein BRG1 (substrate protein remaining %) (BRG1): B (80%<substrate protein remaining %≤100%); Degradation of substrate protein BRM (substrate protein remaining %) (BRM): A (0%≤substrate protein remaining %≤80%) |
| Nc1nnc(-c2ccccc2O)cc1N1CCN(CC2CCN(C3CCN(c4ccc5c(c4)C(=O)N(N4CCC(=O)NC4=O)C5=O)CC3)CC2)CC1 [GT-05095, 5-(4-((4-(3-amino-6-(2-hydroxyphenyl)pyridazin-4-yl)piperazin-1-yl)methyl)-[1,4′-bipiperidin]-1′-yl)-2-(2,4-dioxotetrahydropyrimidin-1(2H)-yl)isoindoline-1,3-dione] | – | – | – | Degradation of substrate protein BRG1 (substrate protein remaining %) (BRG1): B (80%<substrate protein remaining %≤100%); Degradation of substrate protein BRM (substrate protein remaining %) (BRM): A (0%≤substrate protein remaining %≤80%) |
| Cc1ccc(C(=O)Nc2ccc(N3CCN(Cc4ccc5c(c4)C(=O)N(N4CCC(=O)NC4=O)C5=O)CC3)c(C(F)(F)F)c2)cc1C#Cc1cnc2cccnn12 [GT-08219, N-(4-(4-((2-(2,4-dioxotetrahydropyrimidin-1(2H)-yl)-1,3-dioxoisoindolin-5-yl)methyl)piperazin-1-yl)-3-(trifluoromethyl)phenyl)-3-(imidazo[1,2-b]pyridazin-3-ylethynyl)-4-methylbenzamide] | A (0%≤substrate protein remaining %≤80%) | – | – | – |
| Cc1ccc(C(=O)Nc2ccc(N3CCC(N(C)Cc4ccc5c(c4)CN(N4CCC(=O)NC4=O)C5=O)CC3)c(C(F)(F)F)c2)cc1C#Cc1cnc2cccnn12 [GT-08220, N-(4-(4-(((2-(2,4-dioxotetrahydropyrimidin-1(2H)-yl)-1-oxoisoindolin-5-yl)methyl)(methyl)amino)piperidin-1-yl)-3-(trifluoromethyl)phenyl)-3-(imidazo[1,2-b]pyridazin-3-ylethynyl)-4-methylbenzamide] | A (0%≤substrate protein remaining %≤80%) | – | – | inhibition at 0.01 µM [1]: -5 to 0%; inhibition at 0.5 µM [1]: 80 to 100% |
| Cc1ccc(C(=O)Nc2ccc(CN3CCN(CC4CCN(c5ccc6c(c5)C(=O)N(N5CCC(=O)NC5=O)C6=O)CC4)CC3)c(C(F)(F)F)c2)cc1C#Cc1cnc2cccnn12 [GT-08352, N-(4-((4-((1-(2-(2,4-dioxotetrahydropyrimidin-1(2H)-yl)-1,3-dioxoisoindolin-5-yl)piperidin-4-yl)methyl)piperazin-1-yl)methyl)-3-(trifluoromethyl)phenyl)-3-(imidazo[1,2-b]pyridazin-3-ylethynyl)-4-methylbenzamide] | A (0%≤substrate protein remaining %≤80%) | 15 to 20 | 20 to 30 | inhibition at 0.01 µM [1]: 30 to 40%; inhibition at 0.5 µM [1]: 80 to 100% |
| O=C1CCN(N2C(=O)c3ccc(N4CCC(CN5CCN(c6ncc(C(=O)Nc7ccc(OC(F)(F)Cl)cc7)cc6-c6cc[nH]n6)CC5)CC4)cc3C2=O)C(=O)N1 [GT-08356, N-(4-(chlorodifluoromethoxy)phenyl)-6-(4-((1-(2-(2,4-dioxotetrahydropyrimidin-1(2H)-yl)-1,3-dioxoisoindolin-5-yl)piperidin-4-yl)methyl)piperazin-1-yl)-5-(1H-pyrazol-3-yl)nicotinamide] | A (0%≤substrate protein remaining %≤80%) | – | – | inhibition at 0.01 µM [3]: 20 to 30%; inhibition at 0.5 µM [3]: 30 to 40% |
| O=C1CCN(N2C(=O)c3cccc(N4CCC(CN5CCN(c6ncc(C(=O)Nc7ccc(OC(F)(F)Cl)cc7)cc6-c6cc[nH]n6)CC5)CC4)c3C2=O)C(=O)N1 [GT-08357, N-(4-(chlorodifluoromethoxy)phenyl)-6-(4-((1-(2-(2,4-dioxotetrahydropyrimidin-1(2H)-yl)-1,3-dioxoisoindolin-4-yl)piperidin-4-yl)methyl)piperazin-1-yl)-5-(1H-pyrazol-3-yl)nicotinamide] | A (0%≤substrate protein remaining %≤80%) | – | – | – |
| O=C1CCN(N2C(=O)c3ccc(N4CCC(CN5CCC(N6CCN(c7ncc(C(=O)Nc8ccc(OC(F)(F)Cl)cc8)cc7-c7cc[nH]n7)CC6)CC5)CC4)cc3C2=O)C(=O)N1 [GT-08358, N-(4-(chlorodifluoromethoxy)phenyl)-6-(4-(1-((1-(2-(2,4-dioxotetrahydropyrimidin-1(2H)-yl)-1,3-dioxoisoindolin-5-yl)piperidin-4-yl)methyl)piperidin-4-yl)piperazin-1-yl)-5-(1H-pyrazol-3-yl)nicotinamide] | A (0%≤substrate protein remaining %≤80%) | – | – | – |
| O=C1CCN(N2C(=O)c3cccc(N4CCC(CN5CCC(N6CCN(c7ncc(C(=O)Nc8ccc(OC(F)(F)Cl)cc8)cc7-c7cc[nH]n7)CC6)CC5)CC4)c3C2=O)C(=O)N1 [GT-08359, N-(4-(chlorodifluoromethoxy)phenyl)-6-(4-(1-((1-(2-(2,4-dioxotetrahydropyrimidin-1(2H)-yl)-1,3-dioxoisoindolin-4-yl)piperidin-4-yl)methyl)piperidin-4-yl)piperazin-1-yl)-5-(1H-pyrazol-3-yl)nicotinamide] | A (0%≤substrate protein remaining %≤80%) | 15 to 20 | 20 to 30 | inhibition at 0.01 µM [3]: 10 to 15%; inhibition at 0.5 µM [3]: 30 to 40% |
| O=C1CCN(N2C(=O)c3ccc(N4CCC(CN5CCN(C6CCN(c7ncc(C(=O)Nc8ccc(OC(F)(F)Cl)cc8)cc7-c7cc[nH]n7)CC6)CC5)CC4)cc3C2=O)C(=O)N1 [GT-08360, N-(4-(chlorodifluoromethoxy)phenyl)-6-(4-(4-((1-(2-(2,4-dioxotetrahydropyrimidin-1(2H)-yl)-1,3-dioxoisoindolin-5-yl)piperidin-4-yl)methyl)piperazin-1-yl)piperidin-1-yl)-5-(1H-pyrazol-3-yl)nicotinamide] | A (0%≤substrate protein remaining %≤80%) | 20 to 30 | 30 to 40 | inhibition at 0.01 µM [3]: 5 to 10%; inhibition at 0.5 µM [3]: 20 to 30% |
| O=C1CCN(N2C(=O)c3cccc(N4CCC(CN5CCN(C6CCN(c7ncc(C(=O)Nc8ccc(OC(F)(F)Cl)cc8)cc7-c7cc[nH]n7)CC6)CC5)CC4)c3C2=O)C(=O)N1 [GT-08361, N-(4-(chlorodifluoromethoxy)phenyl)-6-(4-(4-((1-(2-(2,4-dioxotetrahydropyrimidin-1(2H)-yl)-1,3-dioxoisoindolin-4-yl)piperidin-4-yl)methyl)piperazin-1-yl)piperidin-1-yl)-5-(1H-pyrazol-3-yl)nicotinamide] | A (0%≤substrate protein remaining %≤80%) | 20 to 30 | 20 to 30 | – |

Reference: patent US20260364184A1, “COMPOUND BASED ON OXOISOINDOLINYL-SUBSTITUTED TETRAHYDROPYRIMIDINE-DIONE AND USE THEREOF” (GLUETACS THERAPEUTICS (SHANGHAI) CO., LTD., priority 2023, published 2026)
